Common to all, as to experiment: MIC, two-fold serial dilutions in Malt Agar, synergism by Kull method
Format in all cases: cell-based

The subject of one test is Penicillium sp. As to the method: (§1) Each test tube was inoculated to make about 5×10^5 fungi per mil. The lowest concentrations of each compound or mixtures to inhibit visible growth (turbidity) at 30° C. for the fungi for 7 days were taken as the minimum inhibitory concentration (MIC). The MIC were taken as end points of activity. End points for the mixtures of compound A (Guanadine component) and Compound B (second Component microbiocide) were then compared with the end points for the guanadine component A alone and compound B alone. Synergism was determined by a commonly used and accepted method described by Kull, F. C.; Eisman, P. C.; Sylwestrowicz, H. D. and Mayer, R. L. in Applied Microbiology 9:538-541 (1961) using the ratio determined by Qa/QA+Qb/QB==Synergy Index (SI) wherein:
(§2) QA=concentration of compound A in parts per million (ppm), acting alone, which produced an end point.
(§3) Qa=concentration of compound A in ppm, in the mixture which produced an end point.
(§4) QB=concentration of compound B in ppm, acting alone which produced an end point.
(§5) Qb=concentration of compound B in ppm, in the mixture which produced an end point.
(§6) When the sum of Qa/QA and Qb/QB is greater than one, antagonism is indicated.
(§7) The MIC values of each compound tested alone (QA or QB) are end-point activities except where the value is expressed as […]. In these cases, the end-point activity was not seen at the highest tested concentration. For purpose of calculation of the synergy index and for operational definition of MIC, the reported value could be an underestimate of the true MIC; thus the true synergy index could be even lower.

A further test concerns Coriolus versicolor. As to the method: as §1, §2, §3, §4, §5, §6, §7
Another test deals with Ophiostoma sp. As to the method:
as §1, §2, §3, §4, §5, §6, §7

The subject of a further test is Alternaria sp. Here is the method:
as §1, §2, §3, §4, §5, §6, §7

For a further test, the system named is Diplodia sp. The conditions noted are these: 30° C., 7 days. Here is the method:
as §1, §2, §3, §4, §5, §6, §7

In the next test the test system is Tyromyces palustris. The conditions noted are these: 30° C., 7 days. As to the method: as §1, §2, §3, §4, §5, §6, §7

Several values for one entry are separate records, joined by “and”; a condition that tells them apart may be missing. Equal values may be shown once.

Regarding “3-iodo-2-propynylbutyl carbamate [Iodocarb]”, the “QB, end-point activity (MIC) of compound B acting alone” value in the test on Penicillium sp. (Penicillium sp, 30° C., 7 days) turned out to be 4 ppm; with Coriolus versicolor (c versicolor, 30° C., 7 days) it was 16 ppm.

As for `N=C(N)NCCCCCCCCNCCCCCCCCNC(=N)N` [Guazatine, 1,1-iminodi(octamethylene)diguanidine], the “QA, end-point activity (MIC) of compound A acting alone” value with Ophiostoma sp. (Ophiosroma sp, 30° C., 7 days) was 1 ppm; in the test on Alternaria sp (Alternaria sp, 30° C., 7 days) it was 32 ppm; with Diplodia sp. it was 64 ppm; in the test with Penicillium sp. (Penicillium sp, 30° C., 7 days), 128 ppm; in the test with Tyromyces palustris (T palustri), 128 ppm; in the test on Coriolus versicolor (c versicolor, 30° C., 7 days) it was 32 ppm and 64 ppm.

Consider `CCCN(CCOc1c(Cl)cc(Cl)cc1Cl)C(=O)n1ccnc1` [Prochloraz, N-propyl-N-(2-(2,4,6-trichlorophenoxy)ethyl)-imidazole-1-carboximide], for which the MIC with Ophiostoma sp. (168 h, read-out: QB, end-point activity (MIC) of compound B acting alone) amounted to 2 µg/mL; in the test on Alternaria sp (Alternaria, 168 h, read-out: QB, end-point activity (MIC) of compound B acting alone), 4 µg/mL; in the test with Penicillium sp. (Penicillium, 168 h, read-out: QB, end-point activity (MIC) of compound B acting alone), 32 µg/mL; with Tyromyces palustris (168 h, read-out: QB, end-point activity (MIC) of compound B acting alone, T palustri), 64 µg/mL; in the test on Coriolus versicolor (Trametes versicolor, 168 h, read-out: QB, end-point activity (MIC) of compound B acting alone) it was 4 µg/mL. Moreover, the “QB, end-point activity (MIC) of compound B acting alone” value in the test with Tyromyces palustris (T palustri) stood at 128 ppm.
